# Data published in patent US7202280B2, “Methods for the treatment and prevention of pancreatitis and for induction of liver regeneration” (priority 2002, dated 2007).
# How the values were obtained:
# SSAT = test: Hepatic, pancreatic and renal SSAT activity in syngenic and metallothionein-SSAT mice after analogue; type: in vivo, mouse; settings: 24 h
# Protocol: (§1) α-methylspermidine, Bis-α-methylspermine and α-methylspermine were administered in saline. […] The data are expressed as means ±S.D. For statistical analysis, the two-tailed Student's t test was used.
# SSAT transgenic rats = test: Stability of the analogues in the liver of SSAT transgenic rats without or with MDL72527 (hepatic polyamine pools); type: in vivo, rat; settings: 25 mg/kg i.p. twice
# Protocol: FIGS. 8A-8D. Hepatic polyamine pools in SSAT transgenic rats treated with methylated polyamine analogues without or with MDL72527. The rats were injected twice with MDL72527 (50 mg/kg i.p.) at 16-h interval. The polyamine analogues (25 mg/kg i.p.) were injected 2 and 8 h later. The animals were sacrificed 24 h after the last MDL72527 injection. There were three to four animals in each group. Put, putrescine; […] Spd, spermidine; Me-Spd, α-methylspermidine; […] The production of transgenic Wistar rats (UKUR30) and mice (UKU181) harboring metallothionein-SSAT fusion gene (Suppola, […]., Porter, C. W., and Jänne, J. (1999) Biochem. […] (2000) Proc. Natl. Acad. Sci. U.S.A. 97, 8290-8295; Lukkarinen, […]., and Alhonen, L. (1997) Stroke 28, 639-645). Partial hepatectomy was carried out according to the original method of Higgins and Anderson (Higgins, G. H., and Anderson, R. M. (1931) Arch. Pathol. 12, 186-202). Treatments before partial hepatectomy and the determination of DNA synthesis were carried out as in ([…]., Suppola, […]., and […]. Biol. Chem. 277, 39867-39872). Transgenic 10 weeks old male rats were injected twice with MDL72527 (50 mg/kg i.p.) at 16-h interval to inactivate PAO according to (Bolkenius, F. N., Bey, P., and Seiler, N. (1985) Biochim. Biophys. […] An aliquot of the homogenates was used for the polyamine assays. The homogenates were centrifuged (at 13 000×g, for 30 min, at 4° C.) and the supernatants were used for the enzyme activity assays. The Institutional Animal Care and Use Committee of the University of Kuopio and by the Provincial Government approved animal experiments. […] Merck (Darmstadt, Germany).
# [1] = tested on: syngenic and UKU181 transgenic mice; test: Plasma α-amylase and ALAT in syngenic and transgenic mice after analogue injection; type: in vivo, mouse; settings: 24 h; for Plasma α-amylase: not corrected constant
# Protocol: as §1
# MT-SSAT transgenic rats = test: Zinc-induced pancreatitis, prevention by pretreatment with analogue (plasma α-amylase, pancreatic histology); type: in vivo, rat; set-up: key to Histological scoring (0 to 4): Edema / Histological scoring (0 to 4): Inflammation: 0 (absent); 1 (minimal); 4 (maximal); settings: for Histological scoring (0 to 4): Edema / Histological scoring (0 to 4): Inflammation / Histological scoring (0 to 4): Necrosis / Histological scoring (0 to 4): Vacuolization: Zn; for Plasma α-amylase activity / acinar necrosis (pancreatic histology): transgenic rats; for Plasma α-amylase activity: zinc 10 mg/kg; for acinar necrosis (pancreatic histology): zinc
# Protocol: FIG. 2. Plasma α-amylase activity in syngenic and transgenic rats after zinc and methylspermidine. The animals were treated as in FIG. 1. Six to eight animals in each group. *p<0.05 as compared with zinc-treated animals. ***p<0.001 as compared with untreated animals. Me-spd, methylspermidine.
# FIGS. 3a–3d. Histology of pancreas of transgenic rats after zinc and methylspermidine. The animals were treated as in FIGS. 1a–1d. Magnification ×125. […] The animals received zinc (10 mg/kg) 24 h before sacrifice without (FIG. 3b) or with methylspermidine (50 mg/kg) either as single dose 4 h before zinc (FIG. 3c) or as two doses 20 h and 4 h before zinc (FIG. 3d).
# Formalin-fixed pancreatic specimens were embedded in paraffin, cut into 5-μm-thick slices, and stained with hematoxylin/eosin. The stained sections were coded and scored by the participating gastroenterologist (K.-H. H.) according to the method of Niederau et al. (Niederau, C., Liddle, R. A., Ferrell, L. D., and Grendell, J. H. (1986) J. Clin. Invest. 78, 1056–1063).
# FIG. 3 depicts pancreatic histology in transgenic animals after saline (FIG. 3a), after zinc alone (FIG. 3b), after zinc and single dose of the analogue (FIG. 3c) and after zinc and two doses of the analogue (FIG. 3d). The acinar structure of untreated transgenic animal is entirely normal (FIG. 3a) whereas zinc induced distinct pancreatitis with more than 50% of the acinar cells undergoing necrosis (FIG. 3b). […] Table A summarizes the histological scoring of pancreatic specimens from all animals. […] A single dose of the analogue administered prior to zinc reduced the extent of necrosis while after two repeated doses of the compound very little, if any, necrosis was present (Table A).
# MT-SSAT (UKUR30) transgenic rats received zinc (10 mg/kg i.p.) 24 h before sacrifice either alone or in the combination with Me2SPM (25 mg/kg i.p.) administered twice 20 h and 4 h before zinc. There were three animals in each group. Plasma amylase activity was measured as a marker of pancreatitis.
compound,measurement,setting,value
"CC(N)CCNCCCCN (stereo not drawn) [α-methylspermidine, 1-methylspermidine]","SSAT activity, Kidney","SSAT; Sg mice, 50 mg/kg",4.98 pmoles/10 min/mg tissue wet weight
same,"SSAT activity, Liver","SSAT; Sg mice, 50 mg/kg",3.74 pmoles/10 min/mg tissue wet weight
same,"SSAT activity, Pancreas","SSAT; Sg mice, 50 mg/kg",6.58 pmoles/10 min/mg tissue wet weight
same,"SSAT activity, Kidney","SSAT; Sg mice, 100 mg/kg",4.61 pmoles/10 min/mg tissue wet weight
same,"SSAT activity, Liver","SSAT; Sg mice, 100 mg/kg",3.77 pmoles/10 min/mg tissue wet weight
same,"SSAT activity, Pancreas","SSAT; Sg mice, 100 mg/kg",7.50 pmoles/10 min/mg tissue wet weight
same,"SSAT activity, Kidney","SSAT; Sg mice, 150 mg/kg",5.05 pmoles/10 min/mg tissue wet weight
same,"SSAT activity, Liver","SSAT; Sg mice, 150 mg/kg",4.16 pmoles/10 min/mg tissue wet weight
same,"SSAT activity, Pancreas","SSAT; Sg mice, 150 mg/kg",6.91 pmoles/10 min/mg tissue wet weight
same,"SSAT activity, Liver","SSAT; Sg mice, 250 mg/kg",3.75 pmoles/10 min/mg tissue wet weight
same,"SSAT activity, Pancreas","SSAT; Sg mice, 250 mg/kg",12.10 pmoles/10 min/mg tissue wet weight
same,"SSAT activity, Liver","SSAT; Sg mice, 375 mg/kg",9.52 pmoles/10 min/mg tissue wet weight
same,"SSAT activity, Pancreas","SSAT; Sg mice, 375 mg/kg",18.19 pmoles/10 min/mg tissue wet weight
same,"SSAT activity, Kidney","SSAT; Sg mice, 500 mg/kg",14.67 pmoles/10 min/mg tissue wet weight
same,"SSAT activity, Liver","SSAT; Sg mice, 500 mg/kg",16.06 pmoles/10 min/mg tissue wet weight
same,"SSAT activity, Pancreas","SSAT; Sg mice, 500 mg/kg",26.85 pmoles/10 min/mg tissue wet weight
same,"SSAT activity, Kidney","SSAT; Tg mice, 50 mg/kg",3.19 pmoles/10 min/mg tissue wet weight
same,"SSAT activity, Liver","SSAT; Tg mice, 50 mg/kg",74.88 pmoles/10 min/mg tissue wet weight
same,"SSAT activity, Pancreas","SSAT; Tg mice, 50 mg/kg",179.02 pmoles/10 min/mg tissue wet weight
same,"SSAT activity, Kidney","SSAT; Tg mice, 100 mg/kg",3.13 pmoles/10 min/mg tissue wet weight
same,"SSAT activity, Liver","SSAT; Tg mice, 100 mg/kg",74.88 pmoles/10 min/mg tissue wet weight
same,"SSAT activity, Pancreas","SSAT; Tg mice, 100 mg/kg",226.27 pmoles/10 min/mg tissue wet weight
same,"SSAT activity, Kidney","SSAT; Tg mice, 150 mg/kg",3.36 pmoles/10 min/mg tissue wet weight
same,"SSAT activity, Liver","SSAT; Tg mice, 150 mg/kg",81.59 pmoles/10 min/mg tissue wet weight
same,"SSAT activity, Pancreas","SSAT; Tg mice, 150 mg/kg",183.078 pmoles/10 min/mg tissue wet weight
same,"SSAT activity, Liver","SSAT; Tg mice, 250 mg/kg",95.04 pmoles/10 min/mg tissue wet weight
same,"SSAT activity, Pancreas","SSAT; Tg mice, 250 mg/kg",188.45 pmoles/10 min/mg tissue wet weight
same,"SSAT activity, Liver","SSAT; Tg mice, 375 mg/kg",135.53 pmoles/10 min/mg tissue wet weight
same,"SSAT activity, Pancreas","SSAT; Tg mice, 375 mg/kg",133.57 pmoles/10 min/mg tissue wet weight
same,accumulation in the liver (tissue concentration),SSAT transgenic rats,highest tissue concentrations
same,metabolic stability / conversion in the liver in vivo,SSAT transgenic rats; without MDL72527,metabolically stable
same,Plasma ALAT,"[1]; Sg mice, 50 mg/kg",17.90 U/dm^3
same,Plasma α-amylase,"[1]; Sg mice, 50 mg/kg",266.76 ± 23.00 ^+ U/dm^3
same,Plasma ALAT,"[1]; Sg mice, 100 mg/kg",19.21 U/dm^3
same,Plasma α-amylase,"[1]; Sg mice, 100 mg/kg",281.81 ± 24.11 U/dm^3
same,Plasma ALAT,"[1]; Sg mice, 150 mg/kg",18.33 U/dm^3
same,Plasma α-amylase,"[1]; Sg mice, 150 mg/kg",284.83 ± 26.90 U/dm^3
same,Plasma ALAT,"[1]; Sg mice, 250 mg/kg",66.00 U/dm^3
same,Plasma α-amylase,"[1]; Sg mice, 250 mg/kg",287.41 ± 74.99 U/dm^3
same,Plasma ALAT,"[1]; Sg mice, 375 mg/kg",111.39 U/dm^3
same,Plasma α-amylase,"[1]; Sg mice, 375 mg/kg",654.32 ± 402.95 U/dm^3
same,Plasma ALAT,"[1]; Sg mice, 500 mg/kg",32.74 U/dm^3
same,Plasma α-amylase,"[1]; Sg mice, 500 mg/kg",370.45 ± 104.58 U/dm^3
same,Plasma ALAT,"[1]; Tg mice, 50 mg/kg",34.92 U/dm^3
same,Plasma α-amylase,"[1]; Tg mice, 50 mg/kg",341.62 ± 44.99 U/dm^3
same,Plasma ALAT,"[1]; Tg mice, 100 mg/kg",44.96 U/dm^3
same,Plasma α-amylase,"[1]; Tg mice, 100 mg/kg",302.90 ± 29.54 U/dm^3
same,Plasma ALAT,"[1]; Tg mice, 150 mg/kg",41.90 U/dm^3
same,Plasma α-amylase,"[1]; Tg mice, 150 mg/kg",275.79 ± 34.37 U/dm^3
same,Plasma ALAT,"[1]; Tg mice, 250 mg/kg",34.05 U/dm^3
same,Plasma α-amylase,"[1]; Tg mice, 250 mg/kg",389.38 ± 213.31 U/dm^3
same,Plasma ALAT,"[1]; Tg mice, 375 mg/kg",52.38 U/dm^3
same,Plasma α-amylase,"[1]; Tg mice, 375 mg/kg",314.51 ± 20.72 U/dm^3
same,Histological scoring (0 to 4): Edema,"MT-SSAT transgenic rats; Sg rats, 1 × Me-spd 50 mg/kg",1
same,Histological scoring (0 to 4): Inflammation,"MT-SSAT transgenic rats; Sg rats, 1 × Me-spd 50 mg/kg",1
same,Histological scoring (0 to 4): Necrosis,"MT-SSAT transgenic rats; Sg rats, 1 × Me-spd 50 mg/kg","0 (0, 0–5%)"
same,Histological scoring (0 to 4): Vacuolization,"MT-SSAT transgenic rats; Sg rats, 1 × Me-spd 50 mg/kg","0 (0, 0–5%)"
same,Histological scoring (0 to 4): Edema,"MT-SSAT transgenic rats; Sg rats, 2 × Me-spd 50 mg/kg",1
same,Histological scoring (0 to 4): Inflammation,"MT-SSAT transgenic rats; Sg rats, 2 × Me-spd 50 mg/kg",0
same,Histological scoring (0 to 4): Necrosis,"MT-SSAT transgenic rats; Sg rats, 2 × Me-spd 50 mg/kg","0 (0, 0–5%)"
same,Histological scoring (0 to 4): Vacuolization,"MT-SSAT transgenic rats; Sg rats, 2 × Me-spd 50 mg/kg","0 (0, 0–5%)"
same,Histological scoring (0 to 4): Edema,"MT-SSAT transgenic rats; Tg rats, 1 × Me-spd 50 mg/kg",1
same,Histological scoring (0 to 4): Inflammation,"MT-SSAT transgenic rats; Tg rats, 1 × Me-spd 50 mg/kg",1
same,Histological scoring (0 to 4): Necrosis,"MT-SSAT transgenic rats; Tg rats, 1 × Me-spd 50 mg/kg","2 (2, 15–35%)"
same,Histological scoring (0 to 4): Vacuolization,"MT-SSAT transgenic rats; Tg rats, 1 × Me-spd 50 mg/kg","0 (0, 0–5%)"
same,Histological scoring (0 to 4): Edema,"MT-SSAT transgenic rats; Tg rats, 2 × Me-spd 50 mg/kg",1
same,Histological scoring (0 to 4): Inflammation,"MT-SSAT transgenic rats; Tg rats, 2 × Me-spd 50 mg/kg",1
same,Histological scoring (0 to 4): Necrosis,"MT-SSAT transgenic rats; Tg rats, 2 × Me-spd 50 mg/kg",0–1
same,Histological scoring (0 to 4): Vacuolization,"MT-SSAT transgenic rats; Tg rats, 2 × Me-spd 50 mg/kg","1 (1, 5–15%)"
same,Plasma α-amylase activity,MT-SSAT transgenic rats; single dose 50 mg/kg 4 h before zinc,decreased after a single dose
same,Plasma α-amylase activity,MT-SSAT transgenic rats; two doses 50 mg/kg 20 h and 4 h before zinc,fully normalized after two repeated doses
same,acinar necrosis (pancreatic histology),MT-SSAT transgenic rats; single dose before zinc,very little necrosis was present
same,acinar necrosis (pancreatic histology),MT-SSAT transgenic rats; two doses before zinc,none after two doses
